{"source": "patent US20100206809A1", "about": "“METHOD AND APPARATUS FOR TREATING ORGANIC MATTER-CONTAINING WATER” (KURITA WATER INDUSTRIES LTD., priority 2007, published 2010)", "key": {"viable cells [1]": {"system": "viable cells", "experiment": "Viable cell counts at measuring points, nonionic surfactant-containing wastewater treatment (FIG. 2 embodiment)", "experimental": "[…] Next, an EDTA-based scale inhibitor (Welclean A801, manufactured by Kurita Water Industries Ltd.) was added in an amount of 10 mg/L (five times the weight of the concentration of calcium ions in softening column-treated water). NaOH was added to adjust the pH to 10.5. Then the water was passed through an RO membrane separator (with an aromatic-polyamide ultra-low-pressure RO membrane “ES-20”, manufactured by Nitto Denko Corporation) at a permeate flow of 60 L/hr and a recovery rate of 80% to perform RO membrane separation treatment.\nIn Example 10 and Comparative Example 2, viable cell counts were measured at several points.\nIn Examples 11 to 14, viable cell counts in the activated carbon-treated water and the softened water were measured.\nIn Examples 15 to 18, viable cell counts in the activated carbon-treated water and the softening column-treated water were measured."}, "[2]": {"experiment": "Daily change in flux through the RO membrane separator", "experimental": "The water that had been subjected to the coagulation-filtration treatment was passed through a fixed-bed activated carbon column at an SV of 20 hr^−1 and then a softening column at an SV of 15 hr^−1. Next, an EDTA-based scale inhibitor (Welclean A801, manufactured by Kurita Water Industries Ltd.) was added in an amount of 10 mg/L (five times the weight of the concentration of calcium ions in softening column-treated water). […] Then the water was passed through an RO membrane separator (with an aromatic-polyamide ultra-low-pressure RO membrane “ES-20”, manufactured by Nitto Denko Corporation) at a permeate flow of 60 L/hr and a recovery rate of 80% to perform RO membrane separation treatment.\nTreatment was performed under the same conditions as those in Example 10, except that the pH of the softening column-treated water was adjusted in such a manner that the pH of the RO feed water was 6 (Reference Example 1) or 8.5 (Reference Example 2).\nIn Example 10, Comparative Example 2, and Reference Examples 1 and 2, daily changes in flux through the RO membrane separator were measured."}, "viable cells [3]": {"system": "viable cells", "experiment": "Viable cell counts at measuring points, industrial water treatment (FIG. 1 embodiment)", "experimental": "The water that had been subjected to the coagulation-filtration treatment was passed through an activated carbon column at an SV of 20 hr^−1. Then the water was passed through an RO membrane separator (with an aromatic-polyamide ultra-low-pressure RO membrane “ES-20”, manufactured by Nitto Denko Corporation) at a permeate flow of 60 L/hr and a recovery rate of 80%.\nIn Example 1 and Comparative Example 1, viable cell counts were measured at several points.\nIn Examples 2 to 5, concentrations of combined chlorine in activated carbon feed water (water fed into the activated carbon column) and activated carbon-treated water (water from the activated carbon column) were measured, and viable cell counts in the activated carbon-treated water were measured.\nIn Examples 6 to 9, concentrations of combined chlorine and viable cell counts in the activated carbon-treated water were measured."}, "[4]": {"conditions": "Example 10 (chloramine T, combined chlorine 5 mg-Cl2/L) / Comparative Example 2 (NaClO, free chlorine 0.5 mg-Cl2/L), wastewater TOC 20 mg/L, SV 20 hr^-1"}, "[5]": {"conditions": "day 1, Example 10 (chloramine T 5 mg-Cl2/L) / Comparative Example 2 (NaClO 0.5 mg-Cl2/L), RO feed water pH 9.5"}, "[6]": {"conditions": "day 7, Example 10 (chloramine T 5 mg-Cl2/L) / Comparative Example 2 (NaClO 0.5 mg-Cl2/L), RO feed water pH 9.5"}, "[7]": {"conditions": "Example 1 (chloramine T, combined chlorine 5 mg-Cl2/L) / Comparative Example 1 (NaClO, free chlorine 0.5 mg-Cl2/L), SV 20 hr^-1"}, "[8]": {"conditions": "Example 11, chloramine T added 0.5 mg-Cl2/L (combined chlorine), SV 20 hr^-1, wastewater"}, "[9]": {"conditions": "Example 12, chloramine T added 0.8 mg-Cl2/L (combined chlorine), SV 20 hr^-1, wastewater"}, "[10]": {"conditions": "Example 15, SV through activated carbon column 10 hr^-1, combined chlorine 1 mg-Cl2/L, wastewater"}, "[11]": {"conditions": "Example 16, SV through activated carbon column 15 hr^-1, combined chlorine 1 mg-Cl2/L, wastewater"}}}
{"molecule": "OCl", "note": "[NaClO, sodium hypochlorite, reference compound]", "values": [{"measurement": "Viable cells detected in the activated carbon-treated water", "setting": "viable cells [1]; Comparative Example 2, free chlorine 0.5 mg-Cl2/L, wastewater", "value": "10^5 viable cells per milliliter"}, {"measurement": "Viable cells detected in the softening column-treated water", "setting": "viable cells [1]; Comparative Example 2, free chlorine 0.5 mg-Cl2/L, wastewater, sampled before the addition of the alkali", "value": "10^6 viable cells per milliliter"}, {"measurement": "Viable cell count, activated carbon-treated water", "setting": "viable cells [1]; [4]", "value": "10^5 cells/ml"}, {"measurement": "Viable cell count, softened water", "setting": "viable cells [1]; [4]", "value": "10^6 cells/ml"}, {"measurement": "Flux", "setting": "[2]; [5]", "value": 0.98, "unit": "m^3/m^2 · day"}, {"measurement": "Flux", "setting": "[2]; [6]", "value": 0.96, "unit": "m^3/m^2 · day"}, {"measurement": "Viable cells detected in the activated carbon-treated water", "setting": "viable cells [3]; Comparative Example 1, free chlorine 0.5 mg-Cl2/L, SV 20 hr^-1", "value": "10^3 viable cells per milliliter"}, {"measurement": "Viable cell count, RO feed water", "setting": "viable cells [3]; [7]", "value": "4 × 10^3 cells/ml"}, {"measurement": "Viable cell count, RO-concentrated water", "setting": "viable cells [3]; [7]", "value": "2 × 10^5 cells/ml"}, {"measurement": "Viable cell count, activated carbon-treated water", "setting": "viable cells [3]; [7]", "value": "5 × 10^3 cells/ml"}]}
{"molecule": "Cc1ccc(S(=O)(=O)[N-]Cl)cc1.[Na+]", "note": "[Chloramine T, sodium N-chloro-p-toluenesulfonamide trihydrate]", "values": [{"measurement": "Viable cells at all measuring points", "setting": "viable cells [1]; Example 10, combined chlorine 5 mg-Cl2/L, wastewater, SV 20 hr^-1", "value": "no viable cells were detected"}, {"measurement": "Viable cell count, activated carbon-treated water", "setting": "viable cells [1]; [8]", "value": "3 × 10^4 cells/ml"}, {"measurement": "Viable cell count, softened water", "setting": "viable cells [1]; [8]", "value": "4 × 10^5 cells/ml"}, {"measurement": "Viable cell count, activated carbon-treated water", "setting": "viable cells [1]; [9]", "value": "6 × 10^3 cells/ml"}, {"measurement": "Viable cell count, softened water", "setting": "viable cells [1]; [9]", "value": "8 × 10^4 cells/ml"}, {"measurement": "Viable cell count, activated carbon-treated water", "setting": "viable cells [1]; [10]", "value": "9 × 10^4 cells/ml"}, {"measurement": "Viable cell count, softened water", "setting": "viable cells [1]; [10]", "value": "2 × 10^6 cells/ml"}, {"measurement": "Viable cell count, activated carbon-treated water", "setting": "viable cells [1]; [11]", "value": "2 × 10^5 cells/ml"}, {"measurement": "Viable cell count, softened water", "setting": "viable cells [1]; [11]", "value": "7 × 10^6 cells/ml"}, {"measurement": "Reduction in flux through the RO membrane separator", "setting": "[2]; Example 10, chloramine T 5 mg-Cl2/L, RO feed water pH 9.5", "value": "no reduction in flux"}, {"measurement": "Flux", "setting": "[2]; [5]", "value": 1.0, "unit": "m^3/m^2 · day"}, {"measurement": "Flux", "setting": "[2]; day 1, Reference Example 1, chloramine T 5 mg-Cl2/L, RO feed water pH 6", "value": 0.98, "unit": "m^3/m^2 · day"}, {"measurement": "Flux", "setting": "[2]; day 1, Reference Example 2, chloramine T 5 mg-Cl2/L, RO feed water pH 8.5", "value": 0.99, "unit": "m^3/m^2 · day"}, {"measurement": "Flux", "setting": "[2]; [6]", "value": 0.95, "unit": "m^3/m^2 · day"}, {"measurement": "Flux", "setting": "[2]; day 7, Reference Example 1, chloramine T 5 mg-Cl2/L, RO feed water pH 6", "value": 0.98, "unit": "m^3/m^2 · day"}, {"measurement": "Flux", "setting": "[2]; day 7, Reference Example 2, chloramine T 5 mg-Cl2/L, RO feed water pH 8.5", "value": 0.97, "unit": "m^3/m^2 · day"}, {"measurement": "Flux", "setting": "[2]; day 30, Example 10 (chloramine T 5 mg-Cl2/L) / Comparative Example 2 (NaClO 0.5 mg-Cl2/L), RO feed water pH 9.5", "value": 0.95, "unit": "m^3/m^2 · day"}, {"measurement": "Flux", "setting": "[2]; day 30, Reference Example 1, chloramine T 5 mg-Cl2/L, RO feed water pH 6", "value": 0.97, "unit": "m^3/m^2 · day"}, {"measurement": "Flux", "setting": "[2]; day 30, Reference Example 2, chloramine T 5 mg-Cl2/L, RO feed water pH 8.5", "value": 0.97, "unit": "m^3/m^2 · day"}, {"measurement": "Flux", "setting": "[2]; day 60, Example 10 (chloramine T 5 mg-Cl2/L), RO feed water pH 9.5", "value": 0.93, "unit": "m^3/m^2 · day"}, {"measurement": "Flux", "setting": "[2]; day 90, Example 10 (chloramine T 5 mg-Cl2/L), RO feed water pH 9.5", "value": 0.93, "unit": "m^3/m^2 · day"}, {"measurement": "Viable cells at all measuring points", "setting": "viable cells [3]; Example 1, combined chlorine 5 mg-Cl2/L, SV 20 hr^-1", "value": "no viable cells were detected"}, {"measurement": "Viable cell count in activated carbon-treated water", "setting": "viable cells [3]; Example 2, combined chlorine in activated carbon feed water 0.5 mg/L, SV 20 hr^-1", "value": "4 × 10^3 cells/ml"}, {"measurement": "Viable cell count in activated carbon-treated water", "setting": "viable cells [3]; Example 3, combined chlorine in activated carbon feed water 0.8 mg/L, SV 20 hr^-1", "value": "5 × 10^3 cells/ml"}, {"measurement": "Viable cell count in activated carbon-treated water", "setting": "viable cells [3]; Example 6, SV through activated carbon column 10 hr^-1, combined chlorine 1 mg-Cl2/L", "value": "9 × 10^3 cells/mil"}, {"measurement": "Viable cell count in activated carbon-treated water", "setting": "viable cells [3]; Example 7, SV through activated carbon column 15 hr^-1, combined chlorine 1 mg-Cl2/L", "value": "2 × 10^3 cells/mil"}]}
